The results in this text go back to article PMC11420954, “Structural and Functional Basis of GenB2 Isomerase Activity from Gentamicin Biosynthesis” (ACS Chemical Biology, 2024).

For assay [1], the target named is T1, GenB2 (Micromonospora echinospora, UniProt Q70KE6).
T1 construct: gene gacE; full length in pET28a, E. coli BL21(DE3), nickel IMAC and gel filtration; plasmid carries an extra 57 nucleotides at the 5' end; homodimer
The assay is described as follows: X-ray crystal structure of the complex. The settings on record: ternary complex with PMP; substrate-binding site; at least 100 mM ligand, pH 6.0, 18 °C.

Assay [2] deals with T1, GenB2. Description: epimerisation to gentamicin C2a, HPLC. Type of assay: biochemical. The settings on record: 200 μM substrate, 20 μM enzyme, 50 mM Tris-HCl pH 8.0, 30 °C, overnight.
The target of assay [3] is T1, GenB2. Description: epimerisation to gentamicin C2, HPLC. The assay is classed as biochemical. The settings on record: 200 μM substrate, 20 μM enzyme, 50 mM Tris-HCl pH 8.0, 30 °C, overnight.
For assay [4], the target named is T1, GenB2. The assay is described as follows: X-ray crystal structure of the holo enzyme. The assay is classed as binding. The settings on record: copurified; coenzyme site at the dimer interface, no Schiff base with Lys227; pH 6.0.
The target in assay [5] is GenB2 (Micromonospora echinospora). The assay is described as follows: crystal structure; holo GenB2 (PMP) and its complexes with G418 or gentamicin X2; space group C222(1), a single protomer in the asymmetric unit, dimer obtained by a symmetry operation; 0.1 M PIPES pH 6.0, 1 M NaCl, 29% PEG 4000, 30% 6-aminohexanoic acid, 18 °C.
Assay [6] has the same target. The assay is described as follows: not stated; GenB2 in solution; the method is not told.

T1 sequence (Q70KE6 entry or part of it): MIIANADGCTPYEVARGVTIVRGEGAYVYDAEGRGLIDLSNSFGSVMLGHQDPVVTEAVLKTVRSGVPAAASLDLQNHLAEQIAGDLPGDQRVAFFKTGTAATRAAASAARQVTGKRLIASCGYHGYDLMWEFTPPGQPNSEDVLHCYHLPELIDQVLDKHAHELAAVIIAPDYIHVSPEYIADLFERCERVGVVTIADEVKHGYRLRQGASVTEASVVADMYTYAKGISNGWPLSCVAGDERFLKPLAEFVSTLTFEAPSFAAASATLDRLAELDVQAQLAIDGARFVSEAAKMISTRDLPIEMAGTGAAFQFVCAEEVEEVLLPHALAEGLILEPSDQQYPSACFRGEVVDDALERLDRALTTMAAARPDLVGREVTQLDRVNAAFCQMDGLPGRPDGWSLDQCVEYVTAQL

`CN[C@@H]1[C@@H](O)[C@@H](O[C@@H]2[C@@H](O)[C@H](O[C@H]3O[C@H](CO)[C@@H](O)[C@H](O)[C@H]3N)[C@@H](N)C[C@H]2N)OC[C@]1(C)O` (stereo in doubt) [gentamicin X2]: the “X-ray crystal structure of the complex” value at GenB2 [1] is “we have obtained the structure of GenB2 in complex with gentamicin G418 and gentamicin X2”.

`CN[C@@H]1[C@@H](O)[C@@H](O[C@@H]2[C@@H](O)[C@H](O[C@H]3O[C@H]([C@@H](C)N)CC[C@H]3N)[C@@H](N)C[C@H]2N)OC[C@]1(C)O` [gentamicin C2]: the “epimerisation to gentamicin C2a, HPLC” value on GenB2 [2] is “conversion of gentamicin C2 into C2a or C2a into C2”.

As to `CN[C@@H]1[C@@H](O)[C@@H](O[C@@H]2[C@@H](O)[C@H](O[C@H]3O[C@H]([C@H](C)N)CC[C@H]3N)[C@@H](N)C[C@H]2N)OC[C@]1(C)O` [gentamicin C2a], the “epimerisation to gentamicin C2, HPLC” value at GenB2 [3] was “wild-type GenB2 was able to perform a high ratio of conversion”.

In the case of `Cc1ncc(COP(=O)(O)O)c(CN)c1O` [pyridoxamine 5-phosphate], the “X-ray crystal structure of the holo enzyme” value at GenB2 [4] is “Each dimer of GenB2 has two PMP molecules bound at the interfaces between the protomers”.

Consider GenB2 (enzyme), for which the stoichiometry N in assay [5] and in assay [6] was 2 each time.
